Like-named read-outs stand apart in the source and are kept apart here.
How the values were obtained:
[1] = system: HCV subgenomic replicon in Huh-7 cells; experiment: Replicon Assay (Example B), luciferase readout EC50; format: cell-based
Outline: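 Huh-7 cells carrying a luciferase-neo HCV subgenomic replicon (NS3–NS5b) were treated with semilog compound dilutions (0.1% DMSO final), in triplicate, for 72 h at 37° C. EC50 came from Bright-Glo luciferase signal as a proxy for replicon RNA; viability was read by Alamar blue.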

[2] = system: Huh-7 cells persistently infected with the HCV subgenomic replicon; experiment: Replicon Assay (Example B), Alamar Blue cytotoxicity CC50; format: cell-based; settings: lower value of the cell pair
Outline: (§1)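 Huh-7 cells carrying a luciferase/neo HCV subgenomic replicon (NS3–NS5b) were treated with semilog compound dilutions in triplicate (0.1% DMSO) for 72 h at 37 °C. Viability came from Alamar blue resazurin-to-resorufin fluorescence (535/590 nm) for CC50. EC50 came from Bright-Glo luciferase luminescence as a proxy for HCV RNA.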

[3] = target: full length NS3/4a (Hepatitis C virus genotype 1b (isolate BK) (HCV), UniProt P26663); experiment: NS3 Protease Assay (Example A), FRET-based; format: biochemical
Chain of full length NS3/4a (P26663 1027-1657): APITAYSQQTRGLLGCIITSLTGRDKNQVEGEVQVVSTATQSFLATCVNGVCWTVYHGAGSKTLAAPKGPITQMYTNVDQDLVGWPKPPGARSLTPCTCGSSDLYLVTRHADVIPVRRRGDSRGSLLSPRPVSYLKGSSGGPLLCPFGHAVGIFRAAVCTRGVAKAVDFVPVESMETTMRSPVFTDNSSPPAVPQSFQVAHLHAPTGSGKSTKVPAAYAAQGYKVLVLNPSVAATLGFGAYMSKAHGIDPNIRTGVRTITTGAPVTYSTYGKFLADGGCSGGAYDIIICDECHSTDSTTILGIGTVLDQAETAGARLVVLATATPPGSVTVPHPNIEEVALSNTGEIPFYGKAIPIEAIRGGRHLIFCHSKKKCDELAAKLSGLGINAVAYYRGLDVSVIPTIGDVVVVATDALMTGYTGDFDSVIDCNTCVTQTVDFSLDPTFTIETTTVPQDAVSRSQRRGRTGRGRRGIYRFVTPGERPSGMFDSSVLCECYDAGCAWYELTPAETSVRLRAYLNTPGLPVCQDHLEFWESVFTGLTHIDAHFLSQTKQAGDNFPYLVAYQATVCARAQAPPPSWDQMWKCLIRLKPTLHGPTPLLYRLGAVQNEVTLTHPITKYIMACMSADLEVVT
Outline: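 Initial rates were taken from fluorescence progress curves over 30 min at room temperature, and IC50 was fitted across replicates. In-house full-length NS3/4a cleaved a FRET peptide (5-FAMsp/QXL520) from the NS4A/B site. Medium: 50 mM Tris pH8, 20 mM DTT, 1% CHAPS, 10% glycerol, 5% DMSO.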

[4] = Replicon Assay (Example B), Alamar Blue cytotoxicity CC50; format: cell-based; settings: human, lower value of the cell pair
Outline: as §1

[5] = system: compound resistant HCV replicon variants in replicon bearing cells; experiment: Colony forming assay for compound resistant HCV replicon variants (Example C); format: cell-based; settings: up to 10x EC50, 1 mg/ml geneticin, 24 days, coomasie blue staining
Procedure: The existence of compound resistant HCV replicon quasispecies was analysed using colony forming assays, where the emergence of compound resistant HCV replicon variants can allow production sufficient replicon encoded neomycin for cellular survival in medium containing 1 mg/ml geneticin (Life Technologies). 4,000 replicon bearing cells were plated/well on 12 well plates, and allowed to adhere overnight. […] The medium used also contained 1 mg/ml geneticin. Plates were then incubated at 37° C. in an atmosphere of 5% CO2 and air for 24 days the medium/compound solution with 1 mg/ml gentamicin was replaced twice every 7 days, before staining surviving colonies with coomasie blue.

[6] = HCV NS3 protease assay, full length NS3/4a, read-out: Assay A IC50 (μM) average
[7] = Hepatitis C virus, Huh-7, replicon assay, luciferase readout, upper value of the cell pair, read-out: Assay B EC50
[8] = read-out: IC50 against the protease activity of the full length NS3/4a

SMILES | EC50 ([1]; replicon assay, luciferase readout, upper value of the cell pair, read-out: Assay B EC50) [nM] | CC50 [2] [nM] | IC50 [3, 6] [µM] | EC50 ([1]; Hepatitis C virus, Huh-7, pre-determined EC50 used to set concentrations in combination studies, read-out: EC50 (replicon)) [nM] | EC50 [1, 7] [nM] | CC50 at 72 h [4] [nM] | emergence of compound resistant colonies [5] | IC50 [3, 8] [µM] | inhibition at 0.1 µM ([3]; @ 0.1 uM) [%]
CCC(NC1CCCC1C(N)=O)c1ccc(Cl)c(C(=O)c2ccc(N)nc2)c1F (racemic) [Example 126, 2-{[1-{3-[(6-aminopyridin-3-yl)carbonyl]-4-chloro-2-fluorophenyl}propyl]amino} cyclopentane-1-carboxamide] | 91 | > 3000 | – | – | – | – | – | – | –
CC[C@@H](N[C@@H](C)CC(N)=O)c1ccc(Cl)c(C(=O)c2ccccc2)c1F [Example 84, (3S)-3-{[(1R)-1-(3-benzoyl-4-chloro-2-fluorophenyl)-propyl]-amino}butanamide] | – | – | 0.057 | 6 | 6 | > 3000 | prevented | – | –
CCC[C@@H](N[C@@H](C)CC(N)=O)c1ccc(Cl)c(C(=O)c2ccc(N)nc2)c1F [Example 258, (3S)-3-{[(1R)-1-{3-[(6-aminopyridin-3-yl)carbonyl]-4-chloro-2-fluorophenyl}butyl]amino} butanamide] | – | – | 0.28 | – | 20 | > 1000 | – | < 1 | –
CC[C@@H](N[C@@H](C)CC(N)=O)c1ccc(Cl)c(C(=O)c2ccc(N)c(C)c2)c1F [Example 259, (3S)-3-{[(1R)-1-{3-[(4-amino-3-methylphenyl)carbonyl]-4-chloro-2-fluorophenyl}propyl]amino} butanamide] | – | – | 0.11 | – | 21 | > 1000 | – | < 1 | –
C[C@@H](CC(N)=O)N[C@@H](c1ccc(Cl)c(C(=O)c2ccc(N)c(Cl)c2)c1F)C1CC1 [Example 261, (3S)-3-{[(R)-{3-[(4-amino-3-chlorophenyl)carbonyl]-4-chloro-2-fluorophenyl}(cyclopropyl)methyl]amino}butanamide] | – | – | 0.16 | – | 9.1 | > 1000 | – | < 1 | –
Cc1cc(C(=O)c2c(Cl)ccc([C@H](N[C@@H](C)CC(N)=O)C3CC3)c2F)ccc1N [Example 262, (3S)-3-{[(R)-{3-[(4-amino-3-methylphenyl)carbonyl]-4-chloro-2-fluorophenyl}-(cyclopropyl)-methyl]-amino}butanamide] | – | – | – | – | 8.5 | > 1000 | – | – | 32
C[C@@H](CC(N)=O)N[C@@H](c1ccc(Cl)c(C(=O)c2ccc(CO)cc2)c1F)C1CC1 [Example 263, (3S)-3-{[(R)-(4-chloro-2-fluoro-3-{[4-(hydroxyl-methyl)phenyl]-carbonyl}phenyl)(cyclo-propyl)-methyl]amino}-butanamide] | – | – | 0.11 | – | 4 | 79000 | – | – | –
[2H]C([2H])([2H])C([2H])([2H])[C@@H](N[C@@H](C)CC(N)=O)c1ccc(Cl)c(C(=O)c2ccc(N)nc2)c1F [Example 265, (3S)-3-{[(1R)-1-{3-[(6-aminopyridin-3-yl)carbonyl]-4-chloro-2-fluorophenyl}(2,2,3,3,3-deutero)propyl]amino}-butanamide] | – | – | 0.13 | – | 25 | > 3000 | – | – | –
[2H]C([2H])([2H])C([2H])([2H])[C@@H](N[C@@H](C)CC(N)=O)c1ccc(Cl)c(C(=O)c2ccc(N)c(Cl)c2)c1F [Example 267, (3S)-3-{[(1R)-1-{3-[(4-amino-3-chlorophenyl)carbonyl]-4-chloro-2-fluorophenyl}(2,2,3,3,3-deutero)propyl]amino}-butanamide] | – | – | 0.085 | – | 5 | > 3000 | – | < 1 | –
CC(C)C[C@@H](N[C@@H](C)CC(N)=O)c1ccc(Cl)c(C(=O)c2ccc(N)nc2)c1F [Example 269, (3S)-3-{[(1R)-1-{3-[(6-aminopyridin-3-yl)carbonyl]-4-chloro-2-fluorophenyl}-3-methylbutyl]amino}-butanamide] | – | – | 1.1 | – | 70 | > 3000 | – | 1 to 5 | –
C[C@@H](CC(N)=O)N[C@@H](c1ccc(Cl)c(C(=O)c2ccc3c(c2)OCC(=O)N3)c1F)C1CC1 [Example 270, (3S)-3-{[(R)-{4-chloro-2-fluoro-3-[(3-oxo-3,4-dihydro-2H-1,4-benzoxazin-7-yl)carbonyl]phenyl} (cyclopropyl)methyl]amino} butanamide] | – | – | 0.18 | – | 6 | > 3000 | – | < 1 | –
CC[C@@H](N[C@@H](C)CC(N)=O)c1ccc(OC)c(C(=O)c2ccc(N)c(C)c2)c1F [Example 273, (3S)-3-{[(1R)-1-{3-[(4-amino-3-methylphenyl)carbonyl]-2-fluoro-4-methoxyphenyl}propyl]amino}butanamide] | – | – | 0.14 | – | 27 | > 3000 | – | – | –
COc1cc(C(=O)c2c(Cl)ccc([C@H](N[C@@H](C)CC(N)=O)C3CC3)c2F)ccc1C#N [Example 275, (3S)-3-{[(R)-{4-chloro-3-[(4-cyano-3-methoxyphenyl)carbonyl]-2-fluorophenyl}(cyclopropyl)methyl]amino}butanamide] | – | – | 0.13 | – | 6.7 | > 3000 | – | – | –
CC[C@@H](N[C@@H](C)CC(N)=O)c1ccc(OC)c(C(=O)c2cccc(C#N)c2)c1F [Example 276, (3S)-3-{[(1R)-1-{3-[(3-cyanophenyl)carbonyl]-2-fluoro-4-methoxyphenyl}propyl]amino}butanamide] | – | – | 0.11 | – | 27 | > 3000 | – | – | –
C[C@@H](CC(N)=O)N[C@H](CC1CC1)c1ccc(Cl)c(C(=O)c2ccc(N)nc2)c1F [Example 278, (3S)-3-{[(1R)-1-{3-[(6-aminopyridin-3-yl)carbonyl]-4-chloro-2-fluorophenyl}-2-cyclopropylethyl]amino} butanamide] | – | – | 0.5 | – | 27 | > 3000 | – | – | –
[2H]C([2H])([2H])C([2H])([2H])[C@@H](N[C@@H](C)CC(N)=O)c1ccc(Cl)c(C(=O)c2ccc3c(c2)OCC(=O)N3)c1F [Example 280, (3S)-3-{[(1R)-1-{4-chloro-2-fluoro-3-[(3-oxo-3,4-dihydro-2H-1,4-benzoxazin-7-yl)carbonyl]phenyl}(2,2,3,3,3-pentadeuteryl)propyl]amino} butanamide] | – | – | 0.3 | – | 25 | > 3000 | – | – | –
